Experimental findings from article PMC6271228, “Diethyl 2-(Phenylcarbamoyl)phenyl Phosphorothioates: Synthesis, Antimycobacterial Activity and Cholinesterase Inhibition” (Molecules, 2014) are described below.

Values after ≈ are worked out from the molar mass of the structure shown. Read-outs that look alike come from different tables or passages of the source.

Experiment [1] deals with Mycobacterium tuberculosis My 331/88 (H37Rv). In words: microbe, parasite or virus in culture. In kind it is cell-based. The conditions noted are these: 37 °C.
Another experiment concerns M. kansasii My 235/80. The experiment in a line: microbe, parasite or virus in culture. In kind it is cell-based, Mycobacterium kansasii. The note with it: for MIC: Mycobacterium kansasii, 37 °C.
For experiment [2], the system named is M. kansasii 6509/96 (clinically isolated). The experiment in a line: microbe, parasite or virus in culture. In kind it is cell-based. The note with it: Mycobacterium kansasii, 37 °C.
Another experiment concerns the target T1, AChE from electric eel (Electrophorus electricus, UniProt O42275).
T1 construct: Acetylcholinesterase was obtained from electric eel (Electrophorus electricus L.); from tissue; host or cells: electric eel (Electrophorus electricus L.)
In words: AChE inhibition, modified Ellman's method. In kind it is biochemical, Electrophorus electricus L. From the text:
(§1) The ability of the tested compounds to inhibit AChE from electric eel (Electrophorus electricus L.) and BChE from equine serum was screened in vitro using modified Ellman’s method for the evaluation of cholinesterase activity. […] […]. These two standards were chosen due to their different structures. […]. The choice of these drugs with different mechanism of action can provide relevant results. All tested compounds expressed a good inhibitory activity with IC50s in low micromolar values.
(§2) The IC50 values were determined using the spectrophotometric Ellman’s method, which is a simple, rapid and direct method to determine the SH and -S-S- group content in proteins. This method is widely used for cholinesterase activity evaluation and screening of the efficiency of cholinesterase inhibitors. Cholinesterase activity is measured indirectly by quantifying the concentration of 5-thio-2-nitrobenzoic acid (TNB) ion formed in the reaction between the thiol reagent 5,5'-dithiobis-2-nitrobenzoic acid (DTNB) and thiocholine, a product of substrate hydrolysis by cholinesterase (i.e., acetylthiocholine, ATCh). All the tested compounds were dissolved in dimethyl sulfoxide (concentration 0.01 M) and then diluted in demineralised water (concentration 0.001 M and 0.0001 M). The Ellman’s method is slightly modified according to Zdrazilova et al.. Acetylcholinesterase was obtained from electric eel (Electrophorus electricus L.) and butyrylcholinesterase from equine serum.
On the technique in general: DTNB colorimetry detects thiols as they appear.

For another experiment, the target named is T2, BChE from equine serum (Equus caballus, UniProt P81908).
T2 construct: butyrylcholinesterase from equine serum; from tissue; host or cells: equine serum
In words: BChE inhibition, modified Ellman's method. Format: biochemical.
Text: as §1, §2

A further experiment has as its system M. avium My 330/88. The experiment in a line: microbe, parasite or virus in culture. Format: cell-based, Mycobacterium avium. The note with it: for MIC: Mycobacterium avium, 37 °C; for MIC values against M. avium: all MIC values (14 and 21 d).
Where [3] appears, read: 336 h, 14 d, read-out: MIC Mtb 331/88 (H37Rv) 14 d.
Where [4] appears, read: 504 h, 21 d, read-out: MIC Mtb 331/88 (H37Rv) 21 d.
Setting [5] is: MY235/80, 168 h, 7 d, read-out: MIC M. kansasii 235/80 7 d.
The mark [6] stands for this setting: MY235/80, 336 h, 14 d, read-out: MIC M. kansasii 235/80 14 d.
The mark [7] stands for this setting: MY235/80, 504 h, 21 d, read-out: MIC M. kansasii 235/80 21 d.
Setting [8] is: 168 h, 7 d, read-out: MIC M. kansasii 6509/96 7 d.
Setting [9] is: 336 h, 14 d, read-out: MIC M. kansasii 6509/96 14 d.
Where [10] appears, read: 504 h, 21 d, read-out: MIC M. kansasii 6509/96 21 d.
Where [11] appears, read: MY330/88, 336 h, 14 d, read-out: MIC M. avium 330/88 14 d.
The mark [12] stands for this setting: MY330/88, 504 h, 21 d, read-out: MIC M. avium 330/88 21 d.

T1 sequence (O42275 24-633): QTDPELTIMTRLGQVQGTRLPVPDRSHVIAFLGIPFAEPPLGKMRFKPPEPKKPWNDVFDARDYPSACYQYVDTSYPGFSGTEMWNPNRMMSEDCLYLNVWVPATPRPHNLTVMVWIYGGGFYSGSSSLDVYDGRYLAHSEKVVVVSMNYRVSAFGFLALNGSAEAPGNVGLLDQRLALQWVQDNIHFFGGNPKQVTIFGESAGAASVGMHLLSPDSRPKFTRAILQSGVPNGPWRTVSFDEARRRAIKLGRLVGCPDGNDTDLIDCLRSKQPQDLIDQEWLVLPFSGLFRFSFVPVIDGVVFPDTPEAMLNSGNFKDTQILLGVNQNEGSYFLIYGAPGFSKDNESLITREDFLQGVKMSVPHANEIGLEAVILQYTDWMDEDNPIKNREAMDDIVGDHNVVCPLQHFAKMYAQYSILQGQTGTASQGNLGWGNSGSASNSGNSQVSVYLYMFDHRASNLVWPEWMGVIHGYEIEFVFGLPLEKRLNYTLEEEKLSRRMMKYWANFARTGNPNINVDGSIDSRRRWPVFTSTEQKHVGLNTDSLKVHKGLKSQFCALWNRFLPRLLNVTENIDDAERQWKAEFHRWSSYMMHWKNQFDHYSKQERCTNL
T2 sequence (P81908 whole entry): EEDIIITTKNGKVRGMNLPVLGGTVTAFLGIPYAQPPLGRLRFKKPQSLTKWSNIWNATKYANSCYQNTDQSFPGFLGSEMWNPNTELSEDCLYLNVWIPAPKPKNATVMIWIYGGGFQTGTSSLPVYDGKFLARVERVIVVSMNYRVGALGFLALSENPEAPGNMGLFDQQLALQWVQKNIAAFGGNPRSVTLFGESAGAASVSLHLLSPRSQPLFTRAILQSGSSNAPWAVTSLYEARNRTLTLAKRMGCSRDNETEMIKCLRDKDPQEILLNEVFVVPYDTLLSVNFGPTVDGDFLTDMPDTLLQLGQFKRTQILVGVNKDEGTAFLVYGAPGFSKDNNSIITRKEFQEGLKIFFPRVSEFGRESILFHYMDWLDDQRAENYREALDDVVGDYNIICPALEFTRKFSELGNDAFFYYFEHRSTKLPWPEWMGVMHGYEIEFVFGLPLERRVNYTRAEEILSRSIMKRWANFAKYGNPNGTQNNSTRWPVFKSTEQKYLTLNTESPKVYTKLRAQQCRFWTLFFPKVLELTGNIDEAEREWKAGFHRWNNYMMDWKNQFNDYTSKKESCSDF

`CCOP(=S)(OCC)Oc1ccc(Br)cc1C(=O)Nc1ccc(Cl)cc1` [1b, O-{4-Bromo-2-[(4-chlorophenyl)carbamoyl]phenyl} O,O-diethyl phosphorothioate]: the MIC in experiment [1] (setting [3]) amounted to 16 µM (≈ 7.66 µg/mL); in experiment [1] (setting [4]), 16 µM (≈ 7.66 µg/mL); in the experiment on M. kansasii My 235/80 (setting [5]), 125 µM (≈ 59.8 µg/mL); in the experiment on M. kansasii My 235/80 (setting [6]), 500 µM (≈ 239 µg/mL); in the experiment on M. kansasii My 235/80 (setting [7]), 500 µM (≈ 239 µg/mL); in experiment [2] (setting [8]), 125 µM (≈ 59.8 µg/mL). The MIC (in experiment [2] (setting [9]); in experiment [2] (setting [10]); in the experiment with M. avium My 330/88 (setting [11]); in the experiment on M. avium My 330/88 (setting [12])) was 500 µM (≈ 239 µg/mL) throughout. For the same molecule, the IC50 (as a rule, the midpoint of a concentration-inhibition curve) against AChE from electric eel was found to be 12.9 ± 0.1 µM; at BChE from equine serum, 13.5 ± 0.9 µM.
In the case of `CCOP(=S)(OCC)Oc1ccc(Br)cc1C(=O)Nc1ccc(Br)cc1` [1e, O-{4-Bromo-2-[(4-bromophenyl)carbamoyl]phenyl} O,O-diethyl phosphorothioate], the MIC was determined as 8 µM (≈ 4.19 µg/mL) in experiment [1] (setting [3]); 16 µM (≈ 8.37 µg/mL) in experiment [1] (setting [4]); 125 µM (≈ 65.4 µg/mL) in the experiment on M. kansasii My 235/80 (setting [5]); 250 µM (≈ 131 µg/mL) with M. kansasii My 235/80 (setting [6]); 250 µM (≈ 131 µg/mL) in the experiment with M. kansasii My 235/80 (setting [7]); 62.5 µM (≈ 32.7 µg/mL) in experiment [2] (setting [8]). Further, the MIC (in experiment [2] (setting [9]); in experiment [2] (setting [10]); with M. avium My 330/88 (setting [11]); with M. avium My 330/88 (setting [12])) was 250 µM (≈ 131 µg/mL) throughout. The “MICs for M. kansasii 235/80” value in the experiment with M. kansasii My 235/80 (all time points) is given as no more than 250 µM. The figures for the IC50 at AChE from electric eel and against BChE from equine serum were 10.7 µM and 18.9 ± 0.2 µM, respectively. Moreover, the “MIC values against M. avium” value in the experiment with M. avium My 330/88 is on record as no more than 250 µM.
For the molecule `CCOP(=S)(OCC)Oc1cc(Cl)ccc1C(=O)Nc1ccc(Cl)cc1` [1t, O-{5-Chloro-2-[(4-chlorophenyl)carbamoyl]phenyl} O,O-diethyl phosphorothioate], the MIC (in experiment [1] (setting [3]); in experiment [1] (setting [4]); with M. kansasii My 235/80 (setting [5]); with M. kansasii My 235/80 (setting [6]); in the experiment on M. kansasii My 235/80 (setting [7]); in experiment [2] (setting [8])) was 32 µM (≈ 13.9 µg/mL) in each case. Also, the MIC stood at 62.5 µM (≈ 27.1 µg/mL) in experiment [2] (setting [9]), 62.5 µM (≈ 27.1 µg/mL) in experiment [2] (setting [10]), 125 µM (≈ 54.3 µg/mL) with M. avium My 330/88 (setting [11]) and 125 µM (≈ 54.3 µg/mL) with M. avium My 330/88 (setting [12]). For the same molecule, the results for the IC50 on AChE from electric eel and against BChE from equine serum were 10.8 ± 0.3 µM and 13.8 ± 0.05 µM, respectively. Besides, the “MIC values against M. avium” value in the experiment with M. avium My 330/88 is reported as no more than 250 µM.
For `CCOP(=S)(OCC)Oc1cc(Cl)ccc1C(=O)Nc1cccc(Cl)c1` [1s, O-{5-Chloro-2-[(3-chlorophenyl)carbamoyl]phenyl} O,O-diethyl phosphorothioate], the MIC in experiment [1] (setting [3]) was found to be 16 µM (≈ 6.95 µg/mL); in experiment [1] (setting [4]), 32 µM (≈ 13.9 µg/mL); with M. kansasii My 235/80 (setting [5]) it was 32 µM (≈ 13.9 µg/mL); in the experiment with M. kansasii My 235/80 (setting [6]) it was 125 µM (≈ 54.3 µg/mL); in the experiment on M. kansasii My 235/80 (setting [7]), 125 µM (≈ 54.3 µg/mL); in experiment [2] (setting [8]), 32 µM (≈ 13.9 µg/mL). The MIC in experiment [2] (setting [9]) stood at 62.5 µM (≈ 27.1 µg/mL); in experiment [2] (setting [10]) it was 125 µM (≈ 54.3 µg/mL); in the experiment with M. avium My 330/88 (setting [11]), 125 µM (≈ 54.3 µg/mL); in the experiment with M. avium My 330/88 (setting [12]), 125 µM (≈ 54.3 µg/mL). The IC50 is 9.79 ± 0.2 µM against AChE from electric eel and 12.5 ± 0.1 µM against BChE from equine serum. Moreover, the “MIC values against M. avium” value in the experiment with M. avium My 330/88 was no more than 250 µM.
In the case of `CCOP(=S)(OCC)Oc1ccc(Br)cc1C(=O)Nc1cccc(Cl)c1` [1a, O-{4-Bromo-2-[(3-chlorophenyl)carbamoyl]phenyl} O,O-diethyl phosphorothioate], the MIC in experiment [1] (setting [3]) turned out to be 8 µM (≈ 3.83 µg/mL); in experiment [1] (setting [4]) it was 16 µM (≈ 7.66 µg/mL); with M. kansasii My 235/80 (setting [5]), 125 µM (≈ 59.8 µg/mL); in the experiment on M. kansasii My 235/80 (setting [6]), 500 µM (≈ 239 µg/mL); with M. kansasii My 235/80 (setting [7]), 500 µM (≈ 239 µg/mL); in experiment [2] (setting [8]), 125 µM (≈ 59.8 µg/mL). In addition, the MIC in experiment [2] (setting [9]) is 500 µM (≈ 239 µg/mL); in experiment [2] (setting [10]) it was 500 µM (≈ 239 µg/mL); in the experiment on M. avium My 330/88 (setting [11]), 500 µM (≈ 239 µg/mL); in the experiment on M. avium My 330/88 (setting [12]), greater than 500 µM. Besides, the IC50 at AChE from electric eel came out at 12.6 ± 0.05 µM; on BChE from equine serum, 13.9 ± 0.05 µM.
`CCOP(=S)(OCC)Oc1ccc(Br)cc1C(=O)Nc1ccc(F)cc1` [1g, O-{4-Bromo-2-[(4-fluorophenyl)carbamoyl]phenyl} O,O-diethyl phosphorothioate]: the MIC in experiment [1] (setting [3]) was 32 µM (≈ 14.8 µg/mL); in experiment [1] (setting [4]), 32 µM (≈ 14.8 µg/mL); in the experiment with M. kansasii My 235/80 (setting [5]), 125 µM (≈ 57.8 µg/mL); in the experiment on M. kansasii My 235/80 (setting [6]) it was 500 µM (≈ 231 µg/mL); in the experiment on M. kansasii My 235/80 (setting [7]) it was greater than 500 µM; in experiment [2] (setting [8]), 125 µM (≈ 57.8 µg/mL). Besides, the MIC in experiment [2] (setting [9]) was 250 µM (≈ 116 µg/mL); in experiment [2] (setting [10]), 250 µM (≈ 116 µg/mL); in the experiment with M. avium My 330/88 (setting [11]), 500 µM (≈ 231 µg/mL); in the experiment with M. avium My 330/88 (setting [12]), greater than 500 µM. In addition, the IC50 against AChE from electric eel was determined as 12.4 ± 0.05 µM; against BChE from equine serum it was 12.6 ± 0.3 µM.
